Experimental data from US5157123A, “S-(2-thiopyridyl)-L-cysteine, a heterobifunctional crosslinking reagent” (priority 1989, dated 1992).
Counter-ions that a name gives are not always drawn.

What was measured:
[1] = system: human monoclonal IgM antibody 1688; assay: Incorporation of TPCH versus TPMPH into IgM antibody 1688 (periodate oxidation, pyridine-2-thione release at 343 nm); conditions: identical coupling conditions, FIG. 2
Protocol: Human IgM (2.5 mg) in 0.1M sodium acetate, pH 5.5 (1 mg IgM/ml) was oxidized in the presence of 10.7 mg (50 μmoles) NaIO4 and 7 mg (19.8 μmoles) of TPCH. After 20 minutes at 0° C. the reaction mixture was chromatographed on a Sephadex G-25 column to remove access NaIO4 and uncoupled TPCH. The derivatized IgM molecules were eluted with 0.1M sodium phosphate, 0.1M sodium chloride, pH 7.5, and stored at 4° C. The extent of modification was determined to be 17 TPCH molecules per IgM by monitoring the release of pyridine-2-thione at 343 nm during incubation of the derivatized antibody in the presence of 10 mM dithiothreitol as described in J. Carlsson, H. Drevin, and R. Axen, Biochem. J., vol. […]
Human IgM (2.5 mg) was oxidized in 1.25 ml of 0.1M sodium acetate, pH 5.5, in the presence of 5.3 mg sodium periodate with either 6.9 mg (20 μmoles) of TPCH trihydrochloride (M.W.=353.5 daltons) or 4.4 mg (20 μmoles) of TPMPH (M.W.=229.3 daltons) at 0° C. […] The derivatized IgM molecules were eluted with 0.1M sodium phosphate, 0.1 M sodium chloride, pH 7.5 The extent of modification was determined as described above.
Human IgM (2.5 mg) was oxidized in the presence of 0.27 mg sodium periodate under identical conditions as described above. The extent of derivatization was determined after 20 minutes of incubation using the procedure described above.

[2] = Water solubility of crosslinkers; assay type: physicochemical; conditions: distilled water

Row | SMILES | increase in time required for incorporation of comparable amounts of crosslinker per antibody, versus TPCH [1] | maximum solubility [2] | water solubility (concentration to which it can be easily dissolved) [2]
1 | NNC(=O)CCSSc1ccccn1 [TPMPH, S-(2-thiopyridyl)-mercaptopropionic acid hydrazide] | ~3 fold | 150 mM | –
2 | NNC(=O)[C@@H](N)CSSc1ccccn1 [TPCH, S-(2-Thiopyridyl)-L-Cysteine Hydrazide Trihydrochloride] | – | – | ≥ 1000 mM
